From patent US20250197372A1 (priority 2020, published 2025)

biological target: recombinant human GAA (acid alpha-glucosidase) (Homo sapiens, UniProt P10253); assay: Acid alpha-glucosidase (GAA) assay (4-methylumbelliferyl-alpha-D-pyranoside substrate, fluorescence); assay type: biochemical
Procedure, shortened: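 Recombinant human enzyme preincubated 60 min at 37 °C with compound dilutions, then 4-methylumbelliferyl-alpha-D-pyranoside substrate added for 20 min at 37 °C. Stopped with glycine/NaOH pH 10; methylumbelliferone fluorescence (ex 365, em 440 nm) versus untreated enzyme; IC50 by 4-PL fit.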

Q: Which IC50 does the source give for O=[N+]([O-])c1cc(N2CCOCC2)ccc1NCc1ccc(CN2C[C@@H](O)[C@H](O)[C@@H](O)[C@@H]2CO)cc1 (stereo in doubt) [Compound 1069, (2S,3S,4S,5R)-2-(hydroxymethyl)-1-{[4-({[4-(morpholin-4-yl)-2-nitrophenyl]amino}methyl)phenyl]methyl}piperidine-3,4,5-triol] here?
A: The IC50 was 68 nM.

Q: How did the IC50 turn out when CN(Cc1ccc(CN2C[C@H](O)[C@@H](O)[C@H](O)[C@H]2CO)cc1)c1cc(-c2cccnn2)cc(C2CC2)c1 [Compound 1001, (2R,3R,4R,5S)-1-{[4-({[3-cyclopropyl-5-(pyridazin-3-yl)phenyl](methyl)amino}methyl)phenyl]methyl}-2-(hydroxymethyl)piperidine-3,4,5-triol] was run?
A: The IC50 was 91 nM.

Q: How did the IC50 turn out when Cc1cc(CN2CCOCC2)cc(NCCCCCCN2C[C@H](O)[C@@H](O)[C@H](O)[C@H]2CO)c1 [Compound 1003, (2R,3R,4R,5S)-2-(hydroxymethyl)-1-[6-({3-methyl-5-[(morpholin-4-yl)methyl]phenyl}amino)hexyl]piperidine-3,4,5-triol] was run?
A: The IC50 was 299 nM.

Q: Cc1cc(CN2CCOCC2)cc(NCc2ccc(CN3C[C@H](O)[C@@H](O)[C@H](O)[C@H]3CO)cc2)c1 [Compound 1005, (2R,3R,4R,5S)-2-(hydroxymethyl)-1-({4-[({3-methyl-5-[(morpholin-4-yl)methyl]phenyl}amino)methyl]phenyl}methyl)piperidine-3,4,5-triol] was tested. Which IC50 did it give?
A: The IC50 was 802 nM.

Q: With OC[C@@H]1[C@@H](O)[C@H](O)[C@@H](O)CN1CCCCCCNc1cc(C2CC2)cc(N2CCOCC2)c1 [Compound 1006, (2R,3R,4R,5S)-1-(6-{[3-cyclopropyl-5-(morpholin-4-yl)phenyl]amino}hexyl)-2-(hydroxymethyl)piperidine-3,4,5-triol] as the compound, how does the IC50 read?
A: The IC50 was 124 nM.

Q: N#Cc1cc(NCc2cccc(CN3C[C@H](O)[C@@H](O)[C@H](O)[C@H]3CO)c2)cc(-c2ccc[nH]2)c1 [Compound 1045, 3-(1H-pyrrol-2-yl)-5-{[(3-{[(2R,3R,4R,5S)-3,4,5-trihydroxy-2-(hydroxymethyl)piperidin-1-yl]methyl}phenyl)methyl]amino}benzonitrile] was tested. Which IC50 did it give?
A: Its IC50 is 1960 nM.

Q: How did the IC50 turn out when N#Cc1cc(NCc2cccc(CN3C[C@H](O)[C@@H](O)[C@H](O)[C@H]3CO)c2)cc(-c2cccnn2)c1 [Compound 1046, 3-(pyridazin-3-yl)-5-{[(3-{[(2R,3R,4R,5S)-3,4,5-trihydroxy-2-(hydroxymethyl)piperidin-1-yl]methyl}phenyl)methyl]amino}benzonitrile] was run?
A: The IC50 was 1630 nM.

Q: N#Cc1cc(NCc2cccc(CN3C[C@H](O)[C@@H](O)[C@H](O)[C@H]3CO)c2)cc(-c2ncccn2)c1 [Compound 1047, 3-(pyrimidin-2-yl)-5-{[(3-{[(2R,3R,4R,5S)-3,4,5-trihydroxy-2-(hydroxymethyl)piperidin-1-yl]methyl}phenyl)methyl]amino}benzonitrile] was tested. Which IC50 did it give?
A: Its IC50 is 1470 nM.

Q: For Cc1cc(NCc2ccc(CN3C[C@H](O)[C@@H](O)[C@H](O)[C@H]3CO)cc2)cc(N2CCOCC2)c1 [Compound 1048, (2R,3R,4R,5S)-2-(hydroxymethyl)-1-{[4-({[3-methyl-5-(morpholin-4-yl)phenyl]amino}methyl)phenyl]methyl}piperidine-3,4,5-triol], which IC50 is on record?
A: Its IC50 is 366 nM.

Q: How did the IC50 turn out when Cc1cc(NCc2ccc(CN3C[C@H](O)[C@@H](O)[C@H](O)[C@H]3CO)cc2)cc(C2=COCCO2)c1 [Compound 1050, (2R,3R,4R,5S)-1-{[4-({[3-(5,6-dihydro-1,4-dioxin-2-yl)-5-methylphenyl]amino}methyl)phenyl]methyl}-2-(hydroxymethyl)piperidine-3,4,5-triol] was run?
A: Its IC50 is 278 nM.

Q: With Cc1cc(NCc2ccc(CN3C[C@H](O)[C@@H](O)[C@H](O)[C@H]3CO)cc2)cc(-c2ccc[nH]2)c1 [Compound 1051, (2R,3R,4R,5S)-2-(hydroxymethyl)-1-{[4-({[3-methyl-5-(1H-pyrrol-2-yl)phenyl]amino}methyl)phenyl]methyl}piperidine-3,4,5-triol] as the compound, how does the IC50 read?
A: Its IC50 is 291 nM.

Q: Cc1cc(NCc2ccc(CN3C[C@H](O)[C@@H](O)[C@H](O)[C@H]3CO)cc2)cc(-c2ncccn2)c1 [Compound 1053, (2R,3R,4R,5S)-2-(hydroxymethyl)-1-{[4-({[3-methyl-5-(pyrimidin-2-yl)phenyl]amino}methyl)phenyl]methyl}piperidine-3,4,5-triol] was tested. Which IC50 did it give?
A: The IC50 was 118 nM.

Q: With CS(=O)(=O)c1cc(NCc2ccc(CN3C[C@H](O)[C@@H](O)[C@H](O)[C@H]3CO)cc2)cc(N2CCOCC2)c1 [Compound 1054, (2R,3R,4R,5S)-2-(hydroxymethyl)-1-{[4-({[3-methanesulfonyl-5-(morpholin-4-yl)phenyl]amino}methyl)phenyl]methyl}piperidine-3,4,5-triol] as the compound, how does the IC50 read?
A: The IC50 was 371 nM.

Q: CS(=O)(=O)c1cc(NCc2ccc(CN3C[C@H](O)[C@@H](O)[C@H](O)[C@H]3CO)cc2)cc(-c2ncccn2)c1 [Compound 1059, (2R,3R,4R,5S)-2-(hydroxymethyl)-1-{[4-({[3-methanesulfonyl-5-(pyrimidin-2-yl)phenyl]amino}methyl)phenyl]methyl}piperidine-3,4,5-triol] was tested. Which IC50 did it give?
A: Its IC50 is 74 nM.

Q: For N#Cc1cc(NCc2ccc(CN3C[C@H](O)[C@@H](O)[C@H](O)[C@H]3CO)cc2)cc(N2CCOCC2)c1 [Compound 1060, 3-(morpholin-4-yl)-5-{[(4-{[(2R,3R,4R,5S)-3,4,5-trihydroxy-2-(hydroxymethyl)piperidin-1-yl]methyl}phenyl)methyl]amino}-benzonitrile], which IC50 is on record?
A: The IC50 was 86 nM.

Q: N#Cc1cc(NCc2ccc(CN3C[C@H](O)[C@@H](O)[C@H](O)[C@H]3CO)cc2)cc(C2=COCCO2)c1 [Compound 1062, 3-(5,6-dihydro-1,4-dioxin-2-yl)-5-{[(4-{[(2R,3R,4R,5S)-3,4,5-trihydroxy-2-(hydroxymethyl)piperidin-1-yl]methyl}phenyl)-methyl]amino}benzonitrile] was tested. Which IC50 did it give?
A: Its IC50 is 68 nM.

Q: How did the IC50 turn out when N#Cc1cc(NCc2ccc(CN3C[C@H](O)[C@@H](O)[C@H](O)[C@H]3CO)cc2)cc(-c2ccc[nH]2)c1 [Compound 1063, 3-(1H-pyrrol-2-yl)-5-{[(4-{[(2R,3R,4R,5S)-3,4,5-trihydroxy-2-(hydroxymethyl)piperidin-1-yl]methyl}phenyl)methyl]amino}-benzonitrile] was run?
A: Its IC50 is 32 nM.

Q: Which IC50 does the source give for N#Cc1cc(NCc2ccc(CN3C[C@H](O)[C@@H](O)[C@H](O)[C@H]3CO)cc2)cc(-c2cccnn2)c1 [Compound 1064, 3-(pyridazin-3-yl)-5-{[(4-{[(2R,3R,4R,5S)-3,4,5-trihydroxy-2-(hydroxymethyl)piperidin-1-yl]methyl}phenyl)methyl]amino}-benzonitrile] here?
A: The IC50 was 39 nM.

Q: For N#Cc1cc(NCc2ccc(CN3C[C@H](O)[C@@H](O)[C@H](O)[C@H]3CO)cc2)cc(-c2ncccn2)c1 [Compound 1065, 3-(pyrimidin-2-yl)-5-{[(4-{[(2R,3R,4R,5S)-3,4,5-trihydroxy-2-(hydroxymethyl)piperidin-1-yl]methyl}phenyl)methyl]amino}-benzonitrile], which IC50 is on record?
A: The IC50 was 90 nM.

Q: How did the IC50 turn out when OC[C@@H]1[C@@H](O)[C@H](O)[C@@H](O)CN1Cc1cccc(CNc2ccc(C3=COCCO3)cc2)c1 [Compound 1066, (2R,3R,4R,5S)-1-{[3-({[4-(5,6-dihydro-1,4-dioxin-2-yl)phenyl]amino}methyl)phenyl]methyl}-2-(hydroxymethyl)piperidine-3,4,5-triol] was run?
A: The IC50 was 1060 nM.
